In one test the target is ACKR3 (Homo sapiens, UniProt P25106). Put plainly: ACKR3 β-arrestin recruitment assay (PathHunter, β-galactosidase complementation). The conditions noted are these: for EC50: stable human ACKR3-β-arrestin-2-CHO cells, mean ± SEM, at least two independent experiments in duplicate; for Emax: read-out: ACKR3 β-arrestin % CXCL12 Emax ± SEM. The class given is cell-based. On the procedure:
(§1) Compounds were evaluated for agonist activity using a β-arrestin recruitment assay based on β-galactosidase complementation (PathHunter, DiscoverX). Stable human ACKR3-β-arrestin-2-CHO cells (DiscoverX) were plated into 96-well white-walled assay plates at 15,000 cells/well in Cell Plating Reagent 2 (DiscoveRx) and incubated at 37° C., 5% CO2 overnight. The next day, test compounds were prepared at 10× concentration in DPBS/1% DMSO and 10 μL was added to the cells. CXCL-12 was included as a positive agonist control. Following a 1.5 hr incubation at 37° C., 55 μL of detection reagent (prepared according to the manufacturer's specifications) was added to each well. The plate was incubated at room temperature for 1 hr, after which luminescence was measured at 1 sec/well using an EnSpire multimode plate reader (PerkinElmer). Relative luminescence units (RLU) were plotted against the log of compound concentration and data were fit to a three-parameter logistic curve to generate EC50 values (GraphPad Prism). EC50 and % Emax values are reported as means±SEM and are the result of at least two independent experiments performed in duplicate. The CXCR4 assay was run similarly except that human CXCR4-C2Cl2 cells (DiscoverX) were plated at 20,000 cells/well in Cell Plating Reagent 9. The next day, the media was removed and cells were incubated with Cell Plating Reagent 4 for 3 hrs, after which the assay was conducted as described above.

In the next test the target is T1, human CXCR4 (Homo sapiens, UniProt P61073).
T1 construct: host or cells: C2C12
Put plainly: CXCR4 β-arrestin recruitment assay (PathHunter). The class given is cell-based. The conditions noted are these: human CXCR4-C2Cl2 cells, relative to CXCL-12. On the procedure: as §1

T1 sequence (P61073 whole entry): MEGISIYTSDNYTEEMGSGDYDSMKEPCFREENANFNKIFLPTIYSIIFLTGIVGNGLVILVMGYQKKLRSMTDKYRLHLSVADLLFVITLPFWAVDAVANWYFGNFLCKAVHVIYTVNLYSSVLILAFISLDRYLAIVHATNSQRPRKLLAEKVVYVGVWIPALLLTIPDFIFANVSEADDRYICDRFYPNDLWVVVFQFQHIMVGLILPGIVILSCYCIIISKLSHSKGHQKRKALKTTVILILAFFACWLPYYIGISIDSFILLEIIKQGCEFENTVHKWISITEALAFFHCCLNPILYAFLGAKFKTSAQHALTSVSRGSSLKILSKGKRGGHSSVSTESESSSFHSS
Sequence of ACKR3 (P25106 whole entry): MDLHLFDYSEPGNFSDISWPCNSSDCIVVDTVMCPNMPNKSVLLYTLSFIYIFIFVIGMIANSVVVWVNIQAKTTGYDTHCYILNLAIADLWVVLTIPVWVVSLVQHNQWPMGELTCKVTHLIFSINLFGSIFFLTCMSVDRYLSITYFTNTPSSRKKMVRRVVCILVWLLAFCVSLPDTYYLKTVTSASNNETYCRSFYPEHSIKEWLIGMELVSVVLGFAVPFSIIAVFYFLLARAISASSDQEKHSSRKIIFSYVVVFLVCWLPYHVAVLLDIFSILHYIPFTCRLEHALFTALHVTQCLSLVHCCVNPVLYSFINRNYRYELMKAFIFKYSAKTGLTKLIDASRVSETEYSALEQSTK

The compound `CCCCCN1CCC(C(=O)c2cc3ccccc3[nH]2)CC1` [WW-19, 1H-indol-2-yl(1-pentylpiperidin-4-yl)methanone] had an EC50 on ACKR3 above 10 µM. Also, the “CXCR4 β-arrestin % CXCL-12Emax (n = 2)” value at human CXCR4 turned out to be 9%.

On to `CCCCCN1CCC(C(=O)c2cc3ccccc3n2CCCCC)CC1` [WW-20], for which, on ACKR3, the Emax was 154 ± 7% and the midpoint of the response, the EC50, lay at 1.77 ± 0.078 µM. For the same compound, the “CXCR4 β-arrestin % CXCL-12Emax (n = 2)” value at human CXCR4 is given as 11%.

On to `CCCCCN1CCN(Cc2cc3ccccc3[nH]2)CC1` [WW-21, 2-[(4-pentylpiperazin-1-yl)methyl]-1H-indole], for which the EC50 on ACKR3 was above 10 µM. On human CXCR4, the “CXCR4 β-arrestin % CXCL-12Emax (n = 2)” value came out at 10%.

For the compound `O=C(c1cc2ccccc2[nH]1)N1CCNCC12CC2` [WW-22, 2-(4,7-diazaspiro[2.5]oct-4-ylcarbonyl)-1H-indole], the EC50 on ACKR3 was above 10 µM. Besides, the “CXCR4 β-arrestin % CXCL-12Emax (n = 2)” value on human CXCR4 is 4%.

As for `CCCCCN1CCN(C(=O)c2cc3ccccc3[nH]2)C2(CC2)C1` [WW-23, 2-[(7-pentyl-4,7-diazaspiro[2.5]oct-4-yl)carbonyl]-1H-indole], on ACKR3, the Emax was 156 ± 11% and a half-maximal effect (EC50) was put at 3.04 ± 0.13 µM. Moreover, on human CXCR4, the “CXCR4 β-arrestin % CXCL-12Emax (n = 2)” value was 11%.

Regarding `CCCCCN1CCN(C(=O)c2cc3ccccc3n2CCCCC)C2(CC2)C1` [WW-24, 1-pentyl-2-[(7-pentyl-4,7-diazaspiro[2.5]oct-4-yl)carbonyl]-1H-indole], at ACKR3, the Emax came out at 154 ± 17% and the midpoint of the response, the EC50, lay at 6.05 ± 0.53 µM. The “CXCR4 β-arrestin % CXCL-12Emax (n = 2)” value on human CXCR4 is 5%.

In the case of `CCCCCN1CCN(C(=O)c2cc3ccccc3[nH]2)C(CC)C1` (stereo not drawn) [WW-25, 2-[(2-ethyl-4-pentylpiperazin-1-yl)carbonyl]-1H-indole], the EC50 at ACKR3 was above 10 µM. In addition, at human CXCR4, the “CXCR4 β-arrestin % CXCL-12Emax (n = 2)” value was determined as 4%.

On to `CC(C)(C)OC(=O)N1CC[C@H](NC(=O)c2cc3ccccc3[nH]2)C1` [WW-26, Tert-butyl (3S)-3-[(1H-indol-2-ylcarbonyl)amino]pyrrolidine-1-carboxylate], for which the EC50 on ACKR3 was above 10 µM. At human CXCR4, the “CXCR4 β-arrestin % CXCL-12Emax (n = 2)” value was 9%.

Regarding `CC(C)(C)OC(=O)N1CCCN(C(=O)c2cc3ccccc3[nH]2)CC1` [WW-27, tert-butyl 4-(1H-indol-2-ylcarbonyl)-1,4-diazepane-1-carboxylate], the EC50 on ACKR3 is above 10 µM. Further, the “CXCR4 β-arrestin % CXCL-12Emax (n = 2)” value at human CXCR4 was 4%.

As for `CCCCCN1CCN(C(=O)c2cc3ccccc3[nH]2)CC1` [WW-28, 2-[(4-pentylpiperazin-1-yl)carbonyl]-1H-indole], the EC50 at ACKR3 was above 10 µM. In addition, the “CXCR4 β-arrestin % CXCL-12Emax (n = 2)” value on human CXCR4 amounted to 11%.

As to `CCCCCN1CC[C@H](NC(=O)c2cc3ccccc3[nH]2)C1` [WW-29, N-[(3S)-1-pentylpyrrolidin-3-yl]-1H-indole-2-carboxamide], on ACKR3, the Emax amounted to 145 ± 4% and the EC50 stood at 1.92 ± 0.056 µM. On human CXCR4, the “CXCR4 β-arrestin % CXCL-12Emax (n = 2)” value was 15%.

The compound `CCCCCN1CCCN(C(=O)c2cc3ccccc3[nH]2)CC1` [WW-30, 2-[(4-pentyl-1,4-diazepan-1-yl)carbonyl]-1H-indole] gave an EC50 at ACKR3 above 10 µM. Further, the “CXCR4 β-arrestin % CXCL-12Emax (n = 2)” value on human CXCR4 is reported as 7%.

For `NC1CN(C(=O)c2cc3ccccc3[nH]2)C1` [WW-31, 1-(1H-indole-2-ylcarbonyl)azetidin-3-amine], the EC50 on ACKR3 was above 10 µM. Besides, at human CXCR4, the “CXCR4 β-arrestin % CXCL-12Emax (n = 2)” value is 7%.

In turn, `CCCCCNC1CN(C(=O)c2cc3ccccc3[nH]2)C1` [WW-32, 1-(1H-indole-2-ylcarbonyl)-N-pentylazetidin-3-amine] registered an EC50 at ACKR3 above 10 µM. The “CXCR4 β-arrestin % CXCL-12Emax (n = 2)” value at human CXCR4 was determined as 9%.

As to `O=C(N[C@H]1CCN(c2nccn3cccc23)C1)c1cc2ccccc2[nH]1` [WW-33, N-[(3S)-1-pyrrolo[1,2-a]pyrazin-1-ylpyrrolidin-3-yl]-1H-indole-2-carboxamide], on ACKR3, the maximum response (Emax) is 150 ± 3% and the EC50 is 0.377 ± 0.009 µM. Besides, the “CXCR4 β-arrestin % CXCL-12Emax (n = 2)” value at human CXCR4 was determined as 6%.

At ACKR3, `CCCCCN1CC[C@H](NC(=O)c2cc3cc(OC)c(OC)c(OC)c3[nH]2)C1` [WW-43, 5,6,7-Trimethoxy-N-[(3S)-1-pentylpyrrolidin-3-yl]-1H-indole-2-carboxamide] yielded an EC50 above 10 µM. Further, on human CXCR4, the “CXCR4 β-arrestin % CXCL-12Emax (n = 2)” value amounted to 10%.

For `CCCCCN1CC[C@H](NC(=O)c2cc3ccc(-c4ccc(F)cc4)cc3[nH]2)C1` [WW-44, 6-(4-Fluorophenyl)-N-[(3S)-1-pentylpyrrolidin-3-yl]-1H-indole-2-carboxamide], on ACKR3, the Emax is 110 ± 7% and a half-maximal effect (EC50) was put at 4.14 ± 0.11 µM. The “CXCR4 β-arrestin % CXCL-12Emax (n = 2)” value on human CXCR4 is recorded as 26%.

As for `CCCCCN1CC[C@H](NC(=O)c2cc3ccc(-c4ccc(OC)cc4)cc3[nH]2)C1` [WW-45, 6-(4-methoxyphenyl)-N-[(3S)-1-pentylpyrrolidin-3-yl]-1H-indole-2-carboxamide], on ACKR3, the EC50 is above 10 µM. Moreover, the “CXCR4 β-arrestin % CXCL-12Emax (n = 2)” value on human CXCR4 is given as 6%.

As to `CCCCCN1CC[C@H](NC(=O)c2cc3cccc(-c4ccc(F)cc4)c3[nH]2)C1` [WW-46, 7-(4-Fluorophenyl)-N-[(3S)-1-pentylpyrrolidin-3-yl]-1H-indole-2-carboxamide], on ACKR3, the Emax is 119 ± 8% and the response was half-maximal at 0.504 ± 0.062 µM (EC50). For the same compound, the “CXCR4 β-arrestin % CXCL-12Emax (n = 2)” value on human CXCR4 was found to be 7%.

In turn, `CCCCCN1CC[C@H](NC(=O)c2cc3c(OC)c(OC)c(OC)cc3[nH]2)C1` [WW-47, 4,5,6-Trimethoxy-N-[(3S)-1-pentylpyrrolidin-3-yl]-1H-indole-2-carboxamide] returned an EC50 at ACKR3 above 10 µM. Moreover, the “CXCR4 β-arrestin % CXCL-12Emax (n = 2)” value at human CXCR4 came to 18%.

`C/C=C1/CN(CCCCC)CC[C@H]1C(=O)c1cc2cc(Cl)ccc2[nH]1` [WW-54, (5-chloro-1H-indol-2-yl)[(3E,4R)-3-ethylidene-1-pentylpiperidin-4-yl]methanone]: at ACKR3, the Emax stood at 129 ± 4% and the EC50 was 1.96 ± 0.027 µM. The “CXCR4 β-arrestin % CXCL-12Emax (n = 2)” value at human CXCR4 is on record as 15%.

In the case of `C/C=C1/CN(CCCCC)CC[C@H]1C(=O)c1cc2ccc(F)cc2[nH]1` [WW-55, [(3E,4R)-3-ethylidene-1-pentylpiperidin-4-yl](6-fluoro-1H-indol-2-yl)methanone], at ACKR3, the Emax worked out at 90 ± 1% and the EC50 was found to be 5 ± 0.6 µM. The “CXCR4 β-arrestin % CXCL-12Emax (n = 2)” value at human CXCR4 was found to be 10%.

In the case of `CCCCCN1CCC(C)(C(=O)c2cc3ccccc3[nH]2)CC1` [WW-57, 1H-Indole-2-yl(4-methyl-1-pentylpiperidin-4-yl)methanone], at ACKR3, the Emax stood at 96 ± 4% and it took 6.45 ± 0.72 µM to reach a half-maximal effect (EC50). Besides, the “CXCR4 β-arrestin % CXCL-12Emax (n = 2)” value on human CXCR4 came out at 5%.

`C/C=C1/CN(CCCCN)CC[C@H]1C(=O)c1cc2ccccc2[nH]1` [WW-58, (3E,4R)-(3-ethylidene-1-(4-aminobutyl)piperidin-4-yl)(1H-indol-2-yl)methanone]: the EC50 on ACKR3 is above 10 µM. Further, the “CXCR4 β-arrestin % CXCL-12Emax (n = 2)” value at human CXCR4 was determined as 3%.

In the case of `C/C=C1/CN(CCCCCN)CC[C@H]1C(=O)c1cc2ccccc2[nH]1` [WW-59, (3E,4R)-(3-ethylidene-1-(5-aminopentyl)piperidin-4-yl)(1H-indol-2-yl)methanone], the EC50 at ACKR3 is above 10 µM. In addition, at human CXCR4, the “CXCR4 β-arrestin % CXCL-12Emax (n = 2)” value was found to be 9%.

On ACKR3, `C/C=C1/CN(CCOCCN)CC[C@H]1C(=O)c1cc2ccccc2[nH]1` [WW-60, (3E,4R)-(3-ethylidene-1-(2-ethoxy-(2-aminoethyl))piperidin-4-yl)(1H-indol-2-yl)methanone] had an EC50 above 10 µM. For the same compound, the “CXCR4 β-arrestin % CXCL-12Emax (n = 2)” value at human CXCR4 worked out at 11%.

`C/C=C1/CN(Cc2ccc(OC)cc2)CC[C@H]1C(O)c1cc2ccccc2n1S(=O)(=O)c1ccccc1` (stereo partly drawn) [WW-61, [(3E,4R)-3-ethylidene-1-(4-methoxybenzyl)piperidin-4-yl][1-(phenylsulfonyl)-1H-indol-2-yl]methanol]: on ACKR3, the Emax came to 156 ± 7% and a half-maximal effect (EC50) was put at 0.527 ± 0.13 µM. Besides, on human CXCR4, the “CXCR4 β-arrestin % CXCL-12Emax (n = 2)” value is recorded as 10%.

On to `C/C=C1/CN(CCCCCC)CC[C@H]1C(=O)c1cc2ccccc2[nH]1` [WW-62, [(3E,4R)-3-ethylidene-1-hexylpiperidin-4-yl](1H-indol-2-yl)methanone], for which, at ACKR3, the Emax was 137 ± 3% and the EC50 was found to be 3.04 ± 0.32 µM. Besides, the “CXCR4 β-arrestin % CXCL-12Emax (n = 2)” value at human CXCR4 amounted to 5%.

For the compound `C/C=C1/CN(CCCC(C)C)CC[C@H]1C(=O)c1cc2ccccc2[nH]1` [WW-63, [(3E,4R)-3-ethylidene-1-(4-methylpentyl)piperidin-4-yl](1H-indol-2-yl)methanone], at ACKR3, the maximal effect (Emax) is 152 ± 1% and a half-maximal effect (EC50) was put at 1.78 ± 0.16 µM. Besides, at human CXCR4, the “CXCR4 β-arrestin % CXCL-12Emax (n = 2)” value worked out at 15%.

The compound `CCOC(=O)C(c1[nH]c2ccccc2c1C=O)C1CCN(S(=O)(=O)c2ccc(C)cc2)C/C1=N\O[Si](C)(C)C(C)(C)C` (stereo not drawn) [WW-64] showed an EC50 on ACKR3 above 10 µM. For the same compound, the “CXCR4 β-arrestin % CXCL-12Emax (n = 2)” value at human CXCR4 is recorded as 16%.

At ACKR3, `CCOC(=O)C(c1[nH]c2ccccc2c1C=O)C1CCN(S(=O)(=O)c2ccc(C)cc2)C/C1=N\O` (stereo not drawn) [WW-65, ethyl (3-formyl-1H-indol-2-yl){(3Z)-3-(hydroxyamino)-1-[(4-methylphenyl)sulfonyl]piperidin-4-yl}acetate] gave an EC50 above 10 µM. For the same compound, the “CXCR4 β-arrestin % CXCL-12Emax (n = 2)” value on human CXCR4 came out at 11%.

Values taken from US20240059688A1, “CONOLIDINE ANALOGUES AS SELECTIVE ACKR3 MODULATORS FOR THE TREATMENT OF CANCER” (Luxembourg Institute of Health (LIH), priority 2020, published 2024).
